# Measured values taken from article PMC9114115, “Property space mapping of Pseudomonas aeruginosa permeability to small molecules” (Scientific Reports, 2022).
# Several values for one entry are separate records, joined by “and”; a condition that tells them apart may be missing. Identical values can stand only once. Counter-ions that a name gives are not always drawn. Like-named read-outs stand apart in the source and are kept apart here.
# Assays:
# P. aeruginosa PAO1 cells = assay: LC–MS quantification of intracellular accumulation, PAO1; details: 10-80 µM; for Concentration slopes of accumulation, PAO1_1 min: 1 min incubation; for Concentration slopes of accumulation, PAO1_40 min: 40 min incubation;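 for all read-outs here: slope of accumulation versus external concentration fitted as a line through zero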
# Protocol: (§1) PAO1-Pore and PΔ3-Pore were grown at 37 °C overnight with shaking at 225 rpm in 50 mM MOPS-M9 (pH 7.2) Minimal Medium supplemented with 1% glycerol[42],[43].
# (§2) The next day, cells were sub-cultured (1.5:100) in fresh MOPS-M9 medium and grown for 16 h. The cultures were then split into two flasks and one of them was induced with 0.1 mM IPTG. Cells incubated for additional 4 h until OD600 reached ~ 1.0 and harvested by centrifugation at 3,275xg for 20 min in RT, washed and concentrated 10X in the spent medium. Assays were performed in 96-well plates in a final volume of […]. Cells were incubated with 10, 20, 40, 80 µM of compounds and after 1- and 40-min incubation at RT, 100 µL cell aliquots were collected by vacuum filtration onto 1.0 µm Glass Fiber Type B filters. For no-cell controls, compounds were diluted to 10, 20, 40, 80 µM final concentration in the same medium, incubated for 1 min and 40 min and filtered onto the same plates. The cell loaded and cell-free filters were dried, removed from plates and placed into 100% methanol at -80 °C for at least 10 min. Filter-bound material was extracted by water bath sonication for 1 min. Cell and filter debris were separated by ultracentrifugation at 45,000 rpm (TLA55 rotor, Beckman) for 8 min at 16 °C and the pellet re-extracted with 80% methanol in water by sonication for 15 min followed by ultracentrifugation at the same conditions. Supernatants from two extractions were combined. For the compound quantification, 5 µL of solution was analyzed in triplicate.
# (§3) Calibration curves for MS analyses of compounds were generated in the same experiment by mixing compound at increasing concentrations with the sonicated PAO1 cell extracts. […] Azithromycin was used as a positive control in all experiments.
# (§4) Samples were processed in positive ion mode. An Eclipse plus C18 Rapid Resolution HD column (1.8 μm, 2.1 × 50 mm, Agilent, USA) was used for separation. The flow rate was 0.6 mL/min using the following gradient: 0 to 1 min (0- 20% ACN), 1 to 4 min (20- 80% ACN), 4 to 5.1 min (80–100% ACN), 5.1 to 6.30 (100% ACN). Solvents contained 0.1% formic acid to promote positive ion formation in the electrospray. […] Data were analyzed using Agilent Masshunter workstation quantitative analysis v. B.10 software.
# P. aeruginosa PAO1 = assay: MIC by two-fold dilution, wild type PAO1; assay type: cell-based, Pseudomonas aeruginosa; details: for MIC: PAO1, MOPS-M9 medium, read-out: MICs
# Protocol: (§5) In all experiments, P. aeruginosa PAO1-Pore (PAO1 attTn7::PLAC-fhuA) and PΔ3-Pore (ΔmexAB ΔmexCD ΔmexXY attTn7::PLAC-fhuA) strains were used[29]. Strains were routinely grown in Luria–Bertani (LB) or MOPS-M9 medium at 37 °C with aeration. MICs shown in Tables 1 and 2 were determined by a two-fold dilution method in LB broth and MOPS-M9 medium, respectively, following the previously described protocol.
# P. aeruginosa PAO1-Pore = assay: MIC by two-fold dilution, hyperporinated PAO1-Pore; assay type: cell-based, Pseudomonas aeruginosa; details: for MICs: PAO1-Pore; for MIC: Pseudomonas aeruginosa, PAO1, read-out: MICs
# Protocol: as §5
# P. aeruginosa = details: for Cluster of the identified "good" permeators: sheet "Good" permeators, all listed compounds are good permeators
# Protocol: The measured levels of compound accumulation were analyzed using machine learning to determine which features of the compounds are most important for enabling their cellular accumulation and to determine their optimal values. […] To accentuate the permeability aspect, the accumulation slopes in efflux-deficient and hyperporinated strains were normalized to those in the parental PAO1 strain.
# To help visualize the data, we performed a principal component (PC) decomposition of the data.
# [1] = tested on: P. aeruginosa PΔ3-Pore cells; assay: LC–MS quantification of intracellular accumulation, PΔ3-Pore; details: 10-80 µM; for Concentration slopes of accumulation, PΔ3-Pore_1 min: 1 min incubation; for Concentration slopes of accumulation, PΔ3-Pore_40min: 40 min incubation;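 for all read-outs here: slope of accumulation versus external concentration fitted as a line through zero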
# Protocol: as §1, §2, §3, §4
# P. aeruginosa PΔ3 = assay: microbe, parasite or virus in culture; assay type: cell-based, Pseudomonas aeruginosa; details: for MIC: Pseudomonas aeruginosa, read-out: MICs; for MICs: P∆3, MOPS-M9 medium
# Protocol: as §5
# P. aeruginosa PΔ3-Pore = assay: MIC by two-fold dilution, barrierless PΔ3-Pore; assay type: cell-based, Pseudomonas aeruginosa; details: for MIC: Pseudomonas aeruginosa, read-out: MICs, P∆3-Pore, MOPS-M9 medium; for MICs: P∆3-Pore
# Protocol: as §5
# P. aeruginosa PΔ3 cells = details: 10-80 µM; for Concentration slopes of accumulation, PΔ3_1 min: 1 min incubation; for Concentration slopes of accumulation, PΔ3_40 min: 40 min incubation;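 for all read-outs here: slope of accumulation versus external concentration fitted as a line through zero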
# Protocol: as §1, §2, §3, §4
# [2] = tested on: P. aeruginosa PAO1-Pore cells; assay: LC–MS quantification of intracellular accumulation, PAO1-Pore; details: 10-80 µM; for Concentration slopes of accumulation, PAO1-Pore_1 min: 1 min incubation; for Concentration slopes of accumulation, PAO1-Pore_40 min: 40 min incubation;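 for all read-outs here: slope of accumulation versus external concentration fitted as a line through zero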
# Protocol: as §1, §2, §3, §4
Structure (SMILES),"Concentration slopes of accumulation, PAO1_1 min (P. aeruginosa PAO1 cells)","Concentration slopes of accumulation, PAO1_40 min (P. aeruginosa PAO1 cells)",MIC (P. aeruginosa PAO1; Pseudomonas aeruginosa),"MICs (P. aeruginosa PAO1-Pore; LB broth, Table S2)",MIC (P. aeruginosa PAO1-Pore),"Cluster of the identified ""good"" permeators (P. aeruginosa)","Concentration slopes of accumulation, PΔ3-Pore_1 min [1]","Concentration slopes of accumulation, PΔ3-Pore_40min [1]",MIC (P. aeruginosa PΔ3),MIC (P. aeruginosa PΔ3-Pore),"MICs (P. aeruginosa PΔ3-Pore; LB broth, Table S2)","Concentration slopes of accumulation, PΔ3_1 min (P. aeruginosa PΔ3 cells)","Concentration slopes of accumulation, PΔ3_40 min (P. aeruginosa PΔ3 cells)","Concentration slopes of accumulation, PAO1-Pore_1 min [2]","Concentration slopes of accumulation, PAO1-Pore_40 min [2]",further results
"CCn1cc(C(=O)O)c(=O)c2cc(F)c(N3CCNC(C)C3)c(F)c21 (stereo not shown) [OU-0000616, LOMEFLOXACIN]",3.37,2.56,2.5 µM,1.56,0.125 µM,4,3.95,8.65,0.625 µM,0.125 µM,0.024,2.91,6.86,2.85,10.46,"MICs (P. aeruginosa PAO1; PAO1, LB broth, Table S2): 1.56"
"C[C@@H]1CN(c2c(F)c(N)c3c(=O)c(C(=O)O)cn(C4CC4)c3c2F)C[C@H](C)N1 [OU-0000617, SPARFLOXACIN]",4.89,5.25,2 µM and 0.8 µg/mL,0.25,0.031 µM and 0.01 µg/mL,4,4.64,10.98,0.5 µM and 0.2 µg/mL,0.016 µM and 0.01 µg/mL,0.0039,5.48,4.11,8.17,10.82,
"COc1c(N2CCNC(C)C2)c(F)cc2c(=O)c(C(=O)O)cn(C3CC3)c12 (stereo not shown) [OU-0000623, GATIFLOXACIN]",1.47,6.10,2 µM and 0.8 µg/mL,0.25,0.0625 µM and 0.02 µg/mL,1,1.90,5.45,0.5 µM and 0.2 µg/mL,0.031 µM and 0.01 µg/mL,0.0039,1.11,4.13,2.29,4.14,
"CS(=O)(=O)O.C[C@H]1COc2c(C3(N)CC3)c(F)cc3c(=O)c(C(=O)O)cn1c23 [OU-0000627, PAZUFLOXACIN MESYLATE]",,,,0.25,,1,5.45,5.72,,,0.0156,3.81,5.01,5.79,7.45,"MIC (P. aeruginosa PAO1): 0.5 µM; MICs (P. aeruginosa PAO1-Pore; MOPS-M9 medium): 0.03 mg/L; MICs (P. aeruginosa PAO1-Pore; MOPS-M9 medium, listed as Pazufloxacin mesylate): 0.0625 µM; MICs (P. aeruginosa PΔ3): 0.05 mg/L; MICs (P. aeruginosa PΔ3; listed as Pazufloxacin mesylate): 0.125 µM; MICs (P. aeruginosa PΔ3-Pore; MOPS-M9 medium): 0.031 μM and 0.01 mg/L"
"Cc1oc(=O)oc1CN1CCN(c2cc3c(cc2F)c(=O)c(C(=O)O)c2n3C(C)S2)CC1 (stereo not shown) [OU-0000631, PRULIFLOXACIN]",10.64,11.45,0.5 µM and 0.23 µg/mL,0.0625,0.016 µM and 0.01 µg/mL,3,5.06,5.20,0.125 µM and 0.06 µg/mL,0.004 µM and 0.002 µg/mL,0.0039,7.35,8.36,7.49,9.31,
"N[C@@H](CC(=O)N1CCn2c(nnc2C(F)(F)F)C1)Cc1cc(F)c(F)cc1F [OU-0000833, Sitagliptin Monophosphate Monohydrate]",7.55,5.67,,,,1,4.24,4.28,,,,4.36,4.18,4.16,4.84,permeator classification (P. aeruginosa): good permeators
"CN1C[C@H](C(=O)N[C@]2(C)O[C@@]3(O)[C@@H]4CCCN4C(=O)[C@H](Cc4ccccc4)N3C2=O)C=C2c3cccc4[nH]cc(c34)C[C@H]21 [OU-0000834, Ergotamine Tartrate]",15.91,12.24,,,,3,20.02,15.58,,,,8.34,13.59,17.94,20.50,permeator classification (P. aeruginosa): good permeators
CC1CN=C(c2ccc(NC(=O)Nc3ccc(C4=NCCN4)cc3)cc2)N1.Cl (stereo not shown) [OU-0001395],3.79,6.44,,,,1,1.38,4.42,,,,8.86,5.05,2.72,7.34,
CC(C)(C)OC(=O)N1[C@H](CCC2CCCCC2)CNC(=O)[C@@H]1Cc1cc(F)cc(F)c1 [OU-0032510],36.86,31.85,,,,3,31.28,28.27,,,,30.64,29.44,37.26,28.02,
O=C1N[C@@H](Cc2c[nH]c3ccccc23)C(=O)N2CCC[C@@H]12 [OU-0032512],,,,,,1,2.90,2.97,,,,2.98,3.06,3.51,2.49,
